Reference: patent US9464060B2, “Compounds” (TAKEDA PHARMACEUTICAL COMPANY LIMITED, priority 2013, dated 2016)

Target: LPA5 receptor (Homo sapiens (Human), UniProt Q9H1C0)
Assay: In vitro LPA5 receptor assay (LPA-driven intracellular calcium release, FLIPR)
Format: cell-based
Settings: RH7777 cells expressing human LPA5 receptors; LPA at EC90
Description: In Vitro LPA5 Receptor Assay
(§1) Engagement of the LPA5 receptor by its ligand, oleoyl-L-α-lysophosphatidic acid (LPA), leads to the release of intracellular stores of calcium into the cytoplasm mediated through a Gq-driven increase in inositol triphosphate (IP3) levels. Gq is a heterotrimeric G protein subunit that activates phospholipase C.
The ability of test compounds to prevent LPA-driven intracellular release of stored calcium from RH7777 cells expressing human LPA5 receptors was assayed by stimulating the cells with LPA in the presence of various test compounds to measure the test compounds'antagonism, i.e. activity in vitro.
(§2) Approximately 10,000 cells in normal culture medium (Minimal Essential Media, 10% Foetal Calf Serum) were dispensed per assay well in a black clear bottom poly-D-lysine coated 384 well plate (Corning). Cells were allowed to settle for thirty minutes at room temperature before being incubated overnight at 37° C., 5% CO2. Sixteen to twenty hours after dispensing, the cells were loaded with a calcium-sensitive fluorescent dye by replacing the culture medium with assay buffer (1× Hanks buffered saline, 25 mM HEPES, 0.1% w/v fatty acid free BSA (bovine serum albumin), pH7.4) containing 1.25 mM probenecid and 1× Calcium 5 Reagent (Molecular Devices). Cells were incubated at 37° C. for one hour to allow for dye uptake.
(§3) To test for antagonist activity, test compounds at a final concentration range between 0.32 nM-10 μM (diluted in assay buffer) were added to the assay wells and allowed to incubate for fifteen minutes. […] Ligand-dependent changes in intracellular calcium levels were determined by measuring changes in fluorescence of the dye over […] following excitation over […].

Chain of LPA5 receptor (Q9H1C0 whole entry): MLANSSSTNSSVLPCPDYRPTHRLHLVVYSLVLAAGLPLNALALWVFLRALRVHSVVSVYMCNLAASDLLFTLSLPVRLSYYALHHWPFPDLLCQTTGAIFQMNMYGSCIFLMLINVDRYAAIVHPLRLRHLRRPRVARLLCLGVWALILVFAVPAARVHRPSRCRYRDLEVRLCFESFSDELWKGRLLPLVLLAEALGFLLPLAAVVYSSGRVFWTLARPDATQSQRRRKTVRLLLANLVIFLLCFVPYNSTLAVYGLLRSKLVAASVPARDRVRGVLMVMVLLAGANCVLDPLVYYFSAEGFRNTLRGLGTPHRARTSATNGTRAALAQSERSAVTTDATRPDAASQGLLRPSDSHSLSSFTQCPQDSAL

Structure (SMILES)	IC50 [µM]
COc1ccccc1Oc1ccc(C(=O)N(Cc2ccc(C(=O)O)cc2)CC(C)C)cc1 [Example 30, 4-((N-Isobutyl-4-(2-methoxyphenoxy)benzamido)methyl)benzoic acid]	0.012
COc1cccc(CN(Cc2ccc(C(=O)O)c(F)c2)C(=O)c2ccc(Oc3ccccc3F)cc2)c1 [Example 59, 2-Fluoro-4-((4-(2-fluorophenoxy)-N-(3-methoxybenzyl)benzamido)methyl)benzoic acid]	0.006
O=C(O)c1ccc(CN(CC2CC2)C(=O)c2ccc(Oc3c(F)cccc3F)cc2)cc1 [Example 37, 4-((N-(Cyclopropylmethyl)-4-(2,6-difluorophenoxy)benzamido)-methyl)benzoic acid]	0.028
COc1ccc(F)cc1Oc1ccc(C(=O)N(Cc2ccc(C(=O)O)cc2)CC2CC2)cc1 [Example 79, 4-((N-(Cyclopropylmethyl)-4-(5-fluoro-2-methoxyphenoxy)benzamido)methyl)benzoic acid]	0.068
Cc1ccccc1Oc1ccc(C(=O)N(Cc2ccc(C(=O)O)cc2)CC2CCC2)cc1 [Example 23, 4-((N-(Cyclobutylmethyl)-4-(o-tolyloxy)benzamido)methyl)benzoic acid]	0.044
COc1ccc(Oc2ccc(C(=O)N(CCc3ccccc3)Cc3ccc(C(=O)O)cc3)cc2)cc1 [Example 49, 4-((4-(4-Methoxyphenoxy)-N-phenethylbenzamido)methyl)benzol acid]	4.6
O=C(O)c1ccc(CN(CCc2ccccc2)C(=O)c2ccc(Oc3ccccc3F)cc2)cc1 [Example 15, 4-((4-(2-Fluorophenoxy)-N-phenethylbenzamido)methyl)benzoic acid]	0.12
O=C(O)c1ccc(CN(CC2CCC2)C(=O)c2ccc(OCc3ccccc3F)cc2)cc1 [Example 52, 4-((N-(Cyclobutylmethyl)-4-((2-fluorobenzyl)oxy)benzamido)-methyl)benzoic acid]	0.37
O=C(O)c1ccc(CN(Cc2ccccc2)C(=O)C2CCC(Oc3ccccc3F)CC2)cc1 (centres unmarked) [Example 55, 4-((N-Benzyl-4-(2-fluorophenoxy)cyclohexanecarboxamido)-methyl)benzoic acid]	0.69
Cc1cccc(F)c1Oc1ccc(C(=O)N(Cc2ccc(C(=O)O)cc2)CC2CCC2)cc1 [Example 41, 4-((N-(Cyclobutylmethyl)-4-(2-fluoro-6-methylphenoxy)benzamido)methyl)benzoic acid]	0.089
O=C(O)c1ccc(CN(CC2CC2)C(=O)c2ccc(Oc3ccccc3Cl)cc2)cc1 [Example 35, 4-((4-(2-Chlorophenoxy)-N-(cyclopropylmethyl)benzamido)-methyl)benzoic acid]	0.007
O=C(O)c1ccc(CN(CCC2CC2)C(=O)c2ccc(Oc3c(F)cccc3Cl)cc2)cc1 [Example 43, 4-((4-(2-Chloro-6-fluorophenoxy)-N-(2-cyclopropylethyl)-benzamido)methyl)benzoic acid]	0.058
O=C(O)c1ccc(CN(CCC2CC2)C(=O)c2ccc(Oc3ccccc3F)cc2)cc1 [Example 9, 4-((N-(2-Cyclopropylethyl)-4-(2-fluorophenoxy)benzamido)-methyl)benzoic acid]	0.015
O=C(O)c1ccc(CN(CCc2ccccc2)C(=O)c2ccc(Oc3ccccc3C(F)(F)F)cc2)cc1 [Example 26, 4-((N-Phenethyl-4-(2-(trifluoromethyl)phenoxy)benzamido)-methyl)benzoic acid]	0.26
O=C(O)c1ccc(CN(CC2CC2)C(=O)c2ccc(Oc3c(F)cccc3Cl)cc2)cc1 [Example 42, 4-((4-(2-Chloro-6-fluorophenoxy)-N-(cyclopropylmethyl)-benzamido)methyl)benzoic acid]	0.017
O=C(O)c1ccc(CN(CCc2ccccc2)C(=O)c2ccc(Oc3cccc(Cl)c3)cc2)cc1 [Example 50, 4-((4-(3-Chlorophenoxy)-N-phenethylbenzamido)methyl)benzoic acid]	3.6

Structure (SMILES)	IC50 [µM]
O=C(O)c1ccc(CN(CCCCc2ccccc2)C(=O)c2ccc(Oc3ccccc3F)cc2)cc1 [Example 21, 4-((4-(2-Fluorophenoxy)-N-(4-phenylbutyl)-benzamido)methyl)benzoic acid]	0.011
O=C(O)c1ccc(CN(CCC2CCC2)C(=O)c2ccc(Oc3ccccc3F)cc2)cc1 [Example 10, 4-((N-(2-Cyclobutylethyl)-4-(2-fluorophenoxy)benzamido)-methyl)benzoic acid]	0.048
O=C(O)c1ccc(CN(CC(F)F)C(=O)c2ccc(Oc3ccccc3F)cc2)cc1 [Example 2, 4-((N-(2,2-Difluoroethyl)-4-(2-fluorophenoxy)benzamido)-methyl)benzoic acid]	0.69
COC1CC(CN(Cc2ccc(C(=O)O)cc2)C(=O)c2ccc(Oc3ccccc3F)cc2)C1 (centres unmarked) [Example 7, 4-((4-(2-Fluorophenoxy)-N-((3-methoxycyclobutyl)methyl)-benzamido)methyl)benzoic acid]	0.031
CCN(Cc1ccc(C(=O)O)cc1)C(=O)c1ccc(Oc2ccccc2F)cc1 [Example 1, 4-((N-Ethyl-4-(2-fluorophenoxy)benzamido)methyl)benzoic acid]	0.84
COc1cccc(Oc2ccc(C(=O)N(CCc3ccccc3)Cc3ccc(C(=O)O)cc3)cc2)c1 [Example 48, 4-((4-(3-Methoxyphenoxy)-N-phenethylbenzamido)methyl)benzoic acid]	3.3
O=C(O)c1ccc(CN(CC2CCC2)C(=O)c2ccc(Oc3ccccc3F)cc2)cc1 [Example 6, 4-((N-(Cyclobutylmethyl)-4-(2-fluorophenoxy)benzamido)-methyl)benzoic acid]	0.024
CCOc1ccccc1Oc1ccc(C(=O)N(Cc2ccc(C(=O)O)cc2)CC2CC2)cc1 [Example 34, 4-((N-(Cyclopropylmethyl)-4-(2-ethoxyphenoxy)-benzamido)methyl)benzoic acid]	0.46
O=C(O)c1ccc(CN(Cc2ccccc2)C(=O)c2ccc(Oc3c(F)cccc3F)cc2)cc1 [Example 39, 4-((N-Benzyl-4-(2,6-difluorophenoxy)benzamido)methyl)benzoic acid]	0.011
O=C(O)c1ccc(CN(CC2CC2)C(=O)c2ccc(OCc3ccccc3F)cc2)cc1 [Example 51, 4-((N-(Cyclopropylmethyl)-4-((2-fluorobenzyl)oxy)benzamido)-methyl)benzoic acid]	0.053
O=C(O)c1ccc(CN(Cc2ccccc2)C(=O)c2ccc(OCc3ccccc3F)cc2)cc1 [Example 53, 4-((N-Benzyl-4-((2-fluorobenzyl)oxy)benzamido)methyl)benzoic acid]	0.058
COc1ccccc1O[C@H]1CC[C@H](C(=O)N(Cc2ccccc2)Cc2ccc(C(=O)O)cc2)CC1 [Example 56, trans-4-((N-Benzyl-4-(2-methoxyphenoxy)cyclohexanecarboxamido)methyl)benzoic acid]	0.18
N#Cc1ccccc1Oc1ccc(C(=O)N(Cc2ccccc2)Cc2ccc(C(=O)O)cc2)cc1 [Example 27, 4-((N-Benzyl-4-(2-cyanophenoxy)benzamido)methyl)benzoic acid]	0.2
O=C(O)c1ccc(CN(CCCc2ccccc2F)C(=O)c2ccc(Oc3ccccc3F)cc2)cc1 [Example 16, 4-((4-(2-Fluorophenoxy)-N-(3-(2-fluorophenyl)propyl)benzamido)methyl)benzoic acid]	0.001
O=C(O)c1ccc(CN(Cc2ccccc2F)C(=O)c2ccc(Oc3ccccc3F)cc2)cc1 [Example 12, 4-((N-(2-Fluorobenzyl)-4-(2-fluorophenoxy)benzamido)-methyl)benzoic acid]	0.009
O=C(O)c1ccc(CN(Cc2ccccc2)C(=O)c2ccc(Oc3c(F)cccc3Cl)cc2)cc1 [Example 44, 4-((N-Benzyl-4-(2-chloro-6-fluorophenoxy)benzamido)-methyl)benzoic acid]	0.011

Target: human LPA1 receptors (Homo sapiens (Human), UniProt Q92633)
Assay: In vitro LPA1 receptor assay (LPA-driven intracellular calcium release, FLIPR)
Format: cell-based
Settings: RH7777 cells expressing human LPA1 receptors; LPA at EC80
Description: In Vitro LPA1 Receptor Assay
as §1, with “LPA1” for “LPA5”
The ability of test compounds to prevent LPA-driven intracellular release of stored calcium from RH7777 cells expressing human LPA1 receptors was assayed by stimulating the cells with LPA in the presence of various test compounds to measure the test compounds' antagonism, i.e. activity in vitro.
as §2, with “(Dulbecco's Modified Eagle” for “(Minimal Essential”, “collagen” for “poly-D-lysine”, “(Beckton Dickinson).” for “(Corning).”
as §3, with “twenty five” for “fifteen”

Chain of human LPA1 receptors (Q92633 whole entry): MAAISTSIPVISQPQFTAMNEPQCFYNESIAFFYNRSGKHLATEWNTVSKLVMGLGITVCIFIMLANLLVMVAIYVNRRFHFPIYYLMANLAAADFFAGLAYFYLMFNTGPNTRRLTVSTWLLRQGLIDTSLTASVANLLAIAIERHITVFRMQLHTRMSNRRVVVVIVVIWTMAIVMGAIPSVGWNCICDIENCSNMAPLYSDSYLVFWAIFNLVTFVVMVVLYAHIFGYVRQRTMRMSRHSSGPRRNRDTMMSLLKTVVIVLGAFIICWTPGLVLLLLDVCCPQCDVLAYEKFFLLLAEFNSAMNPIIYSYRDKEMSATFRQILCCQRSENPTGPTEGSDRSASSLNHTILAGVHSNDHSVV

Structure (SMILES)	IC50 [µM]
COc1ccccc1Oc1ccc(C(=O)N(Cc2ccc(C(=O)O)cc2)CC(C)C)cc1 [Example 30, 4-((N-Isobutyl-4-(2-methoxyphenoxy)benzamido)methyl)benzoic acid]	0.012
O=C(O)c1ccc(CN(CC2CC2)C(=O)c2ccc(Oc3c(F)cccc3F)cc2)cc1 [Example 37, 4-((N-(Cyclopropylmethyl)-4-(2,6-difluorophenoxy)benzamido)-methyl)benzoic acid]	0.025
COc1ccc(F)cc1Oc1ccc(C(=O)N(Cc2ccc(C(=O)O)cc2)CC2CC2)cc1 [Example 79, 4-((N-(Cyclopropylmethyl)-4-(5-fluoro-2-methoxyphenoxy)benzamido)methyl)benzoic acid]	0.094
